Results from US20090252814A1, “USE OF XENON FOR ORGAN PROTECTION” (priority 2005, published 2009).

Legend:
[1] = system: erythropoietin (EPO); assay: EPO RNA expression in neonatal rat brain (RT-PCR); type: in vivo, Sprague Dawley rats; conditions: neonatal rat brains, 75% xenon 2 h, harvested 0-24 h after
Experimental: Neonatal rats (7 days) Sprague Dawley rats were used. All procedures were approved by the Home Office.
C=Rat hippocampal brain control stored in −80° C. 0=Rat hippocampal brain treated with xenon for 2 hrs, sacrificed immediately after and stored in −80° C. 2=Rat hippocampal brain treated with xenon for 2 hrs, sacrificed 2 hrs later and stored in −80° C. 4=Rat hippocampal brain treated with xenon for 2 hrs, sacrificed 4 hrs later and stored in −80° C. 8=Rat hippocampal brain treated with xenon for 2 hrs, sacrificed 8 hrs later and stored in −80° C. 24=Rat hippocampal brain treated with xenon for 2 hrs, sacrificed 24 hrs later and stored in −80° C. P2=Rat hippocampal brain positive control with ischaemia injury for 45 mins, harvested after 24 hrs, stored in −80° C.
Total RNA was extracted from neonatal rat brains.
Reverse transcription of the RNA in order to obtain the first-strand cDNA was carried out using techniques well known in the art. […]
The resulting PCR amplification products were electrophoresed on a 1×TAE agarose gel in 1×TAE buffer and visualised using Fluor-S MultiImager BIORAD. […] As the level of fluorescence is approximately proportional to the amount of intercalated ethidium bromide, the abundance of amplified DNA within samples can be compared; in other words, the level of expression of a gene of interest can be determined. […]

[2] = system: erythropoietin (EPO); assay: EPO protein expression in neonatal rat brain (western blot); type: in vivo, Sprague Dawley rats; conditions: neonatal rat brains, 75% xenon 2 h, harvested 0-24 h after
Experimental: Sprague Dawley, 7 day neonatal rats were used. All procedures were approved by the Home Office.
The neonatal rats were exposed to 75% xenon for two hours. The gas was administered by gas inhalation. The brains of said rats were then harvested as described below between 0-24 hours after exposure to the xenon gas.
The tissues were homogenised and western blots of neonatal rat brain samples were carried out as described in Example 1.
The primary antibodies were anti-α-tubulin antibody, and monoclonal mouse anti-erythropoietin antibody.

Question: Which “EPO expression (RNA)” value [1] does the source give for `[Xe]` [xenon] here?
Answer: The value was “time-dependent increase”.

Question: What about the “expression of EPO protein” value [2] of the same compound?
Answer: The value was “time-dependent increase”.
